The record followed here is US10093678B2, “Azaspiro derivatives as TRPM8 antagonists” (RaQualia Pharma Inc., priority 2014, dated 2018).

SMILES strings stand for the structures. A value given as a limit tells only on which side of the number the result lay.

The target of this assay is T1, human TRPM8 (Homo sapiens, UniProt Q7Z2W7).
T1 construct: expressed in transfected cells; host or cells: HEK293
T1 sequence (Q7Z2W7 whole entry): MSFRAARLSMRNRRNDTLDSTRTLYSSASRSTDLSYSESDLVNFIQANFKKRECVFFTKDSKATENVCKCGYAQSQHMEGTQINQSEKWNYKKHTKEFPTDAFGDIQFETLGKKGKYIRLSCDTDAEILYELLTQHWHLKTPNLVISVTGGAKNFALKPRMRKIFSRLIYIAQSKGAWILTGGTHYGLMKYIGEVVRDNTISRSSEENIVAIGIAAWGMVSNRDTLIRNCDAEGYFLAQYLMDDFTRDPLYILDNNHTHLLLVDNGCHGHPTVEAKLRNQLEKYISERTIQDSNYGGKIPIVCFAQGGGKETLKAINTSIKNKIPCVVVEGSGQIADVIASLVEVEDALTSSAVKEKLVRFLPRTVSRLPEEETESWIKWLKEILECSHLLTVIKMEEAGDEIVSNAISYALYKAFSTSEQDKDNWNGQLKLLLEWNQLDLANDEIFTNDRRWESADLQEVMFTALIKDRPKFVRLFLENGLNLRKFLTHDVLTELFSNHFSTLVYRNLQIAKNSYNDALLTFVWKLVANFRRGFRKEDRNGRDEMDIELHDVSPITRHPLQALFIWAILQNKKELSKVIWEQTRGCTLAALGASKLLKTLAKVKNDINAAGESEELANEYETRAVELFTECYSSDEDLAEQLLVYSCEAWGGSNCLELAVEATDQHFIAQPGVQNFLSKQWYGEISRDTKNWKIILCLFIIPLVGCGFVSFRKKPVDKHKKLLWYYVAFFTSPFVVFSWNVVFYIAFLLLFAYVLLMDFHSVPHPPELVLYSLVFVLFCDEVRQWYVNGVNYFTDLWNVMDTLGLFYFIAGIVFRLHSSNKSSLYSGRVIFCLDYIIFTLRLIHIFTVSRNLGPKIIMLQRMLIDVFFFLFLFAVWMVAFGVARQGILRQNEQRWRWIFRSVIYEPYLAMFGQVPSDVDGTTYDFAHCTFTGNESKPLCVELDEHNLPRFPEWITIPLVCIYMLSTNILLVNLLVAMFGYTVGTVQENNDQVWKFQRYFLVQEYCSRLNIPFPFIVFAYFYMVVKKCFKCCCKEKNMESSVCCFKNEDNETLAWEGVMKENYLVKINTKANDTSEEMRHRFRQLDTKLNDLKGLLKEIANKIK
The experiment in a line: Menthol-induced Ca2+ influx in HEK293 cells stably expressing human TRPM8. The assay is classed as cell-based. The settings on record: 30 microM menthol-induced Ca2+ influx, read-out: IC50 against TRPM8. An outline of the steps:
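IC50 values were fitted from 11-point dose-response data averaged over duplicate wells. Compound was added for 5 min to Fluo4-loaded HEK293 cells carrying stable human TRPM8, in HBSS/HEPES pH 7.4 with probenecid. Intracellular Ca2+ change after 30 microM menthol addition was then imaged on FDSS.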
Usually IC50 stands for the concentration needed to halve the response being measured. `Cc1ccncc1-c1c(F)cc(C(=O)CN2C(=O)NC3(CCC(F)(F)CC3)C2=O)cc1F` [Example 13-30]: the IC50 was less than 0.1 µM.
Under `Cc1cccc(N(C)c2ccc(C(=O)CN3C(=O)NC4(CCCCC4)C3=O)cn2)c1` [Example 19-1, 3-(2-(6-(methyl(m-tolyl)amino)pyridin-3-yl)-2-oxoethyl)-1,3-diazaspiro[4.5]decane-2,4-dione] stands less than 0.1 µM; under `Cc1ncccc1-c1ccc(C(=O)CN2C(=O)NC3(CCC(F)(F)CC3)C2=O)nc1` [Example 10-1], less than 0.1 µM.
Under `O=C1CCc2c(cccc2-c2ccc(C(=O)CN3C(=O)NC4(CCC(F)(F)CC4)C3=O)cc2)N1` [Example 6-52] stands less than 0.5 µM; under `COc1nc2ccc(C)nc2n1-c1ccc(C(=O)CN2C(=O)NC3(CCC(F)(F)CC3)C2=O)cc1` [Example 26-3], less than 0.01 µM.
For `Cc1ccccc1-c1ccc(C(=O)CN2C(=O)NC3(CCC(F)(F)CC3)C2=O)nn1` [Example 12-7], the IC50 is less than 0.5 µM.
Next, `O=C(CN1C(=O)NC2(CCC(F)(F)CC2)C1=O)c1ccc(-n2c(CO)nc3cccnc32)cc1` [Example 28-4, 8,8-difluoro-3-(2-(4-(2-(hydroxymethyl)-3H-imidazo[4,5-b]pyridin-3-yl)phenyl)-2-oxoethyl)-1,3-diazaspiro[4.5]decane-2,4-dione]: less than 0.5 µM; `Cc1nc2ccccc2n1-c1ccc(C(=O)CN2CC3(CCC(F)(F)CC3)OC2=O)cc1` [Example 22-3]: less than 0.1 µM.
Regarding `Cc1ccc2nc(C)n(-c3ccc(C(=O)CN4C(=O)NC5(CCC(F)(F)CC5)C4=O)cc3)c2n1` [Example 5-27], the half-inhibitory concentration (IC50) was less than 0.01 µM.
As to `Cc1cc(C(=O)CN2C(=O)NC3(CCCCC3)C2=O)cnc1-c1ccccc1C#N` [Example 11-1], the concentration for half-maximal inhibition (IC50) was less than 0.1 µM.
Next, `Cn1c(C(=O)CN2C(=O)NC3(CCC(F)(F)CC3)C2=O)ccc1-c1ccccc1CO` [Example 16-30]: less than 0.5 µM.
Next, `Cc1nc2ccccc2n1-c1ccc(C(=O)CN2C(=O)NC3(CCCCCC3)C2=O)cc1` [Example 5-13]: less than 0.1 µM; `Cc1nc(C(=O)CN2CC3(CCC(F)(F)CC3)OC2=O)c(C)n1-c1cccc(F)c1` [Example 2-18]: less than 0.5 µM.
With `Cc1nc(C(=O)CN2C(=O)NC3(CCCCC3)C2=O)c(C)n1-c1ccccc1` [Example 2-1], the IC50 is less than 0.1 µM.
Under `Cc1c(C(=O)CN2C(=O)NC3(CCC(F)(F)CC3)C2=O)nn(C)c1-c1ccccc1` [Example 4-1] stands less than 0.1 µM; under `Cc1ccsc1-c1ccc(C(=O)CN2C(=O)NC3(CCCCC3)C2=O)cc1` [Example 7-3], less than 0.1 µM; under `O=C(CN1C(=O)OC2(CCC(F)(F)CC2)C1=O)c1ccc(-c2ncccn2)cc1` [Example 7-26], less than 0.1 µM.
On to `O=C(CN1C(=O)NC2(CCC(F)(F)CC2)C1=O)c1ccc(-c2cccc3nccnc23)cc1` [Example 6-30], for which the IC50 is less than 0.1 µM.
Under `O=C(CN1C(=O)NC2(CCC(F)(F)CC2)C1=O)c1ccc(N2CCOc3ccccc32)nc1` [Example 19-7] stands less than 0.1 µM; under `COc1cccnc1-c1ccc(C(=O)CN2C(=O)NC3(CCC(F)(F)CC3)C2=O)cc1` [Example 6-84], less than 0.1 µM; under `COCc1nc2cccnc2n1-c1ccc(C(=O)CN2C(=O)NC3(CCC(F)(F)CC3)C2=O)cc1` [Example 24-4], less than 0.5 µM.
Next, `O=C(CN1C(=O)NC2(CCC(F)(F)CC2)C1=O)c1ccc(-c2nncc3ccccc23)cc1` [Example 6-18]: less than 0.1 µM; `Cc1cc(C(=O)CN2C(=O)NC3(CCC(F)(F)CC3)C2=O)n(C)c1-c1cccc(Cl)c1` [Example 16-12]: less than 0.1 µM.
Next, `O=C(CN1C(=O)NC2(CCC(F)(F)CC2)C1=O)c1ccc(-c2cccnc2NCCO)cc1` [Example 6-46]: less than 0.5 µM; `COc1cc(C(=O)CN2C(=O)NC3(CCC(F)(F)CC3)C2=O)ccc1-c1ccccc1C#N` [Example 5-5]: less than 0.1 µM; `Cc1cc(C(=O)CN2C(=O)NC3(CCC(F)(F)CC3)C2=O)sc1-c1ccccc1C#N` [Example 14-8]: less than 0.1 µM.
In the case of `O=C(CN1C(=O)NC2(CCC(F)(F)CC2)C1=O)c1ccc(-c2cccc3cnccc23)c(F)c1` [Example 13-22], the IC50 was less than 0.1 µM.
As for `Cc1sc(C(=O)CN2C(=O)NC3(CCC(F)(F)CC3)C2=O)c(C)c1-c1cccc(CO)c1` [Example 15-12], the IC50 was less than 0.5 µM.
As to `Cc1cccc(-c2c(C)sc(C(=O)CN3C(=O)NC4(CCC(F)(F)CC4)C3=O)c2C)c1` [Example 15-11], the IC50 was less than 0.5 µM.
Consider `Cc1nc(C(=O)CN2C(=O)NC3(CCC(F)(F)CC3)C2=O)sc1-c1cccc(C#N)c1` [Example 18-3], for which the IC50 was less than 0.1 µM.
Under `Cn1c(C(=O)CN2C(=O)NC3(CCC(F)(F)CC3)C2=O)ccc1-c1cccc(C#N)c1` [Example 16-1] stands less than 0.1 µM.
Turning to `Cc1cc(-n2c(C)cc(C(=O)CN3C(=O)NC4(CCC(F)(F)CC4)C3=O)c2C)on1` [Example 3-1], the IC50 was less than 0.1 µM.
Turning to `Cc1ccccc1-c1c(C)cc(C(=O)CN2C(=O)NC3(CCC(F)(F)CC3)C2=O)n1C` [Example 16-19], the half-maximal inhibitory concentration (IC50) is less than 0.1 µM.
As to `Cc1nc(C(=O)CN2C(=O)NC3(CCC(F)(F)CC3)C2=O)sc1-c1ccccc1` [Example 4-5], the IC50 is less than 0.1 µM.
Regarding `O=C(CN1C(=O)NC2(CCC(F)(F)CC2)C1=O)c1ccc(Oc2ccccn2)cc1` [Example 5-17], the IC50 is less than 0.1 µM.
Take `Cc1sc(C(=O)CN2C(=O)NC3(CCC(F)(F)CC3)C2=O)c(C)c1-c1cccnc1` [Example 15-2]: the IC50 is less than 0.1 µM.
For `Cc1ccc2nc(CN3CCC3)n(-c3ccc(C(=O)CN4C(=O)NC5(CCC(F)(F)CC5)C4=O)cc3)c2n1` [Example 25-4], the IC50 is less than 0.5 µM.
Next, `Cc1cc(C(=O)CN2C(=O)NC3(CCC(F)(F)CC3)C2=O)ccc1-c1cc(F)cc(F)c1` [Example 13-16]: less than 0.1 µM; `Cc1nc2nccnc2n1-c1ccc(C(=O)CN2C(=O)NC3(CCC(F)(F)CC3)C2=O)cc1` [Example 19-39]: less than 0.5 µM; `Cc1c(C(=O)CN2C(=O)NC3(CCC(F)(F)CC3)C2=O)cn(C)c1-c1cncc(F)c1` [Example 16-23]: less than 0.1 µM.
Regarding `O=C(CN1C(=O)NC2(CCC(F)(F)CC2)C1=O)c1ccc(-c2cccc3ncncc23)cc1` [Example 6-45], the IC50 is less than 0.1 µM.
Next, `Cc1cc(C(=O)CN2C(=O)NC3(CCC(F)(F)CC3)C2=O)ccc1-c1cccc(F)c1` [Example 13-17]: less than 0.1 µM; `O=C(CN1C(=O)NC2(CCC(F)(F)CC2)C1=O)c1ccc(-n2c(C(F)F)nc3cccnc32)cc1` [Example 24-1]: less than 0.1 µM; `O=C(CN1C(=O)NC2(CCC(F)(F)CC2)C1=O)c1ccc(-n2cnc3nccnc32)cc1` [Example 19-37]: less than 0.1 µM.
Next, `Cc1c(C(=O)CN2CC3(CCC(F)(F)CC3)OC2=O)ccn1-c1ccccc1` [Example 4-9]: less than 0.5 µM; `CCOc1ncccc1-c1ccc(C(=O)CN2C(=O)NC3(CCC(F)(F)CC3)C2=O)cc1` [Example 6-39]: less than 0.1 µM; `O=C(CN1C(=O)NC2(CCC(F)(F)CC2)C1=O)c1ccc(-c2ccccc2CO)nc1` [Example 9-17]: less than 0.1 µM.
Turning to `O=C(CN1C(=O)NC2(CCCCC2)C1=O)c1ccc(Oc2ccccc2Cl)nc1` [Example 20-5], the IC50 was less than 0.5 µM.
In the case of `O=C(CN1C(=O)NC2(CCCCC2)C1=O)c1ccc(-c2ncccc2CO)cc1` [Example 7-7], the IC50 is less than 0.1 µM.
Under `COc1ccccc1-c1ccc(C(=O)CN2C(=O)NC3(CCCCC3)C2=O)cn1` [Example 9-3] stands less than 0.01 µM; under `O=C(CN1C(=O)NC2(CCC(F)(F)CC2)C1=O)c1ccc(-c2cccnc2CO)cc1` [Example 6-9], less than 0.1 µM; under `N#Cc1ccnnc1Oc1ccc(C(=O)CN2C(=O)NC3(CCC(F)(F)CC3)C2=O)cc1` [Example 21-12, 3-(4-(2-(8,8-difluoro-2,4-dioxo-1,3-diazaspiro[4.5]decan-3-yl)acetyl)phenoxy)pyridazine-4-carbonitrile], less than 0.1 µM.
Under `Cc1nc2ccc(C(F)(F)F)nc2n1-c1ccc(C(=O)CN2C(=O)NC3(CCC(F)(F)CC3)C2=O)cc1` [Example 5-31] stands less than 0.1 µM; under `Cc1ccncc1-c1ccc(C(=O)CN2C(=O)NC3(CCC(F)(F)CC3)C2=O)n1C` [Example 16-2], less than 0.1 µM.
As to `CS(=O)(=O)c1ccccc1-c1ccc(C(=O)CN2C(=O)NC3(CCC(F)(F)CC3)C2=O)cc1` [Example 6-53], the IC50 was less than 0.5 µM.
Next, `Cc1cncc(-n2c(C)cc(C(=O)CN3C(=O)NC4(CCC(F)(F)CC4)C3=O)c2C)n1` [Example 3-2]: less than 0.1 µM.
Next, `O=C(CN1C(=O)NC2(CCC(F)(F)CC2)C1=O)c1ccc(-c2cncc3[nH]ncc23)cc1` [Example 6-4]: less than 0.01 µM; `O=C(CN1C(=O)NC2(CCCCC2)C1=O)c1ccc(Oc2ccccc2)cc1` [Example 5-19]: less than 0.1 µM; `Cc1ccnnc1Oc1ccc(C(=O)CN2C(=O)NC3(CCC(F)(F)CC3)C2=O)cc1` [Example 21-11, 8,8-difluoro-3-(2-(4-((4-methylpyridazin-3-yl)oxy)phenyl)-2-oxoethyl)-1,3-diazaspiro[4.5]decane-2,4-dione]: less than 0.5 µM.
For `N#Cc1nccnc1Oc1ccc(C(=O)CN2C(=O)NC3(CCC(F)(F)CC3)C2=O)cc1` [Example 21-8], the IC50 was less than 0.1 µM.
Under `CC(O)c1ccccc1-c1ccc(C(=O)CN2C(=O)NC3(CCC(F)(F)CC3)C2=O)cc1` (stereo not shown) [Example 6-40] stands less than 0.1 µM; under `Cc1cccc(-c2c(C)cc(C(=O)CN3C(=O)NC4(CCC(F)(F)CC4)C3=O)n2C)c1` [Example 16-18], less than 0.1 µM; under `Cn1c(C(=O)CN2C(=O)NC3(CCC(F)(F)CC3)C2=O)ccc1-c1ccccc1C#N` [Example 16-29], less than 0.5 µM.
Under `COC(=O)c1cccc(-n2c(C)cc(C(=O)CN3C(=O)NC4(CCCCC4)C3=O)c2C)c1` [Example 3-8] stands less than 0.1 µM.
